Results taken from patent publication US9078949B2, “Compositions of partially deacetylated chitin derivatives” (GENIS HF., priority 2005, dated 2015).
Where two headings read alike, the source gives them in different places. Values belong to the molecule of their own block, whether it stands above or below them.

How the values were obtained:
Chitinase A [1] = molecular target: T1, Chitinase A (Serratia marcescens, UniProt P07254); test: Cleavage of oligomers by Chitinase A judged by MALDI-TOF (biostability); assay type: in vitro ADME, S. marcescens; conditions: assay conditions (pH 5.5 and pH 7.4)
[2] = Absorption of chitooligosaccharides into the blood of a human volunteer (MALDI-TOF MS, GPC, HPIEC); assay type: in vivo; conditions: for Mass calc (HPIEC homologue): blood sample (7.0 ml) after 3 weeks of ChOS consumption
Procedure: Chitooligomers composed of N-acetyl glucosamine and glucosamine were prepared by Genis, Reykjavik, Iceland. Briefly, chitin was partially deacetylated in alkali, washed and hydrolysed to oligomers by chitinase. Oligomers were ultrafiltrated, desalted and spray dried to a fine white powder. Average degree of deacetylation was 47% (FA 0.53). Analysis and quantification of oligomers and homologues were performed, using the same methods as for the blood.
A voluntary subject was consuming daily 1.8 g of ChOS (Genis ehf; S41124-1K) for a period of 4 weeks. Blood samples were collected within a period of 6 weeks. The first sample was taken before consumption of ChOS. The following 4 samples were taken weekly starting 1 week after the first consumption. Sample 6 was taken 2 weeks after stopping the consumption of ChOS. The volume of each sample was 7.0 ml. The blood samples were centrifuged for 30 min at 3000 rpm. The serum was collected. Methanol and sodium chloride were added to a final concentration of 30% methanol and 0.1 mg/ml sodium chloride followed by another centrifugation step. Samples of 500 μl were filtered through 3 kDa cut-off membranes (ultrafiltration). The supernatant was filled up for 3 times. Appropriate filtrates were pooled, the methanol was removed in vacuum, and the samples were finally lyophilised.
The lyophilised samples (app. 100 μg) were redissolved in 100 μl of methanol/water (v/v 50:50). An aliquot of the solution was mixed on the target with 2 μl of a solution of DHB in 30% aqueous ethanol ([…]). The drop was dried under a gentle stream of air. Mass spectra were recorded on a Bruker Reflex II (Daltonik, Bremen, Germany) in the positive ion mode. For ionisation, a nitrogen laser (337 nm, 3 ns pulse width, 3 Hz) was used. All spectra were measured in the reflector mode using external calibration. Monoisotopic peaks are labelled in all mass spectra.
The lyophilised samples (appr. 100 μg) were redissolved in 100 μl of methanol/deuterium oxide (v/v 50:50). A 10-fold molar excess of hexadeutero acetic anhydride was added as well as 3 drops of glacial tetradeutero acetic acid. The solution was stirred at 30° C. for 12 h. The reaction was stopped by addition of an equimolar amount of ammonia. The solutions were lyophilised and redissolved in 100 μl of ammonia. The concentration of ammonia was set to a 10-fold molar excess with respect to the moles of N-acetyl glucosamine units (GlcNAc or A). The solution was stirred at 22° C. over night. The ammonia was removed in vacuum, followed by lyophilisation of the samples. […] The concentration of potassium hydroxide was set to a 2-fold molar excess with respect to the moles of GlcNAc units. The solution was stirred for 10 h at r. t. neutralized by addition of cation exchange resin (H^+ form) followed by filtration and lyophilisation of the filtrate.
MALDI-TOF mass spectra were taken as described in Example 4. The quantification of relative signal intensities leads to the composition of homologues in the mixture.
The samples are prepared as described under Homologue determination by MALDI-TOF MS. Subsequently, a standard was added to each sample. The standard, a chitin oligomer (An), has to be of the same DP+/−1 as the analyte. A serial dilution of this standard was used. A comparison of the signal intensities of the analyte with the standard gives the concentration of the analyte. […]
Mixtures of homologues (and oligomers) obtained from the GPC separation were analysed by HPIEC. […]

Chitinase A [3] = molecular target: T1, Chitinase A; test: Blocking of Chitinase A activity (4-MU-A3 substrate, fluorescence); assay type: biochemical; conditions: for blocking of chitinase activity: pH 7.4
Procedure: Chitooligosaccharides (ChOS) (lots No. G020418 and G020218) were fractionated into homologue fractions, either by cation exchange chromatography or gel permeation chromatography or by the combination of both methods. The products were freeze dried and analysed for structure and sequence by MALDI-TOF mass spectrometry. Three other un-fractionated ChOS lots from Genis were also analysed by the same MALDI-TOF method (lots No. G040823, G050421 and G050421UF; where UF stands for ultrafiltrated through 1 kDa membrane to reduce the content of DP≦5).
A purified Chitinase A preparation from S. marcescens was used as a standard Family 18 chitinase, and 4-methylumbelliferyl-beta-D-N,N′-triacetylchitotrioside (4-MU-A3), a chitin tetramer (A4) analogue, was used as a standard chitinase substrate.
The standard Chitinase A solution was 0.5 nM (500 pM) in 0.1 mg/ml BSA, 50 mM phosphate buffer pH 7.4 (Chit-A sol.) and the substrate solution was 40 μM 4-MU-A3 in 50 mM phosphate buffer pH 7.4.
Different concentration of each pure ChOS homologue (usually 0, 25, 50, 100, 200, 400 and 800 μM) was made in the substrate buffer. For the assay, 25 μl of the Chit-A solution was mixed with 25 μl of the substrate/blocking solution, incubated at 37° C. for 10 min. The reaction was stopped with 1.95 ml 0.2 M sodium […] buffer (Na2CO3). The formation of the product, 4-Methylumbelliferone (4-MU) was read for each reaction in a Perken-Elmer LS SOB Fluorometer. The excitation wavelength was 380 nm (5 nm adjusting slit) and the emission wavelength was 460 nm (4 nm adjusting slit). Each reaction was read in triplicate. […] Affinity of each homologue was calculated as inverted IC50.
Even tough the chitinase A has an optimal activity at pH 5.5, the pH for the blocking experiments was adjusted at pH 7.4. This was done in order to free the amine groups of ChOS from protons, since earlier pilot experiments performed at pH 5.5 indicated low blocking activities of the ChOS homologues. Also this pH better resembles the physiological pH of blood and other physiological fluids, better reflecting the behaviour of the oligosaccharides in the human body.

[4] = molecular target: HC gp-39 (39-kDa Human Cartilage Glycoprotein) (Homo sapiens, UniProt P36222); test: Binding to HC gp-39 by intrinsic tryptophan fluorescence
Sequence of HC gp-39 (39-kDa Human Cartilage Glycoprotein) (P36222 22-383): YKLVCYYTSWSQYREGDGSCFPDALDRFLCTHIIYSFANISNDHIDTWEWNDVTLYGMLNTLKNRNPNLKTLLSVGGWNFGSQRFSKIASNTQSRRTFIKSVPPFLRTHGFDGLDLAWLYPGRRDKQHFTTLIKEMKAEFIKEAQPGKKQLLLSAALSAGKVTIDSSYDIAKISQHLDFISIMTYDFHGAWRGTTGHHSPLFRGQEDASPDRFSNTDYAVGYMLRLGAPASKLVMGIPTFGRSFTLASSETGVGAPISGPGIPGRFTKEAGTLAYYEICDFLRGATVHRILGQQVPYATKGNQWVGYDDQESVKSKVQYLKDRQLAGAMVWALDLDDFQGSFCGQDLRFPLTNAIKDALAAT
Procedure: The affinities of non-covalent complexes between ChOS and HC gp-39 were analysed making use of the change of the intrinsic tryptophan fluorescence of the protein under binding conditions. The change of fluorescence intensity is caused by ligand-induced changes of the solvent cover of tryptophan residues and positively correlated with the sugar concentration.
HC gp-39 was dissolved in 25 mM Tris-HCl buffer pH 7.4 containing 1 mM dithiothreitol to a final concentration of 1.00 μM (protein solution). Different concentrations of homologues were prepared in 25 mM Tris-HCl buffer pH 7.4 containing 1 mM dithiothreitol (sugar solution). […] The fluorescence was read for each reaction in a Perkin-Elmer LS SOB fluorescence spectrometer (Perkin-Elmer, Überlingen, Germany). […] Each reaction was measured in triplicate.
From the row fluorescence data the fluorescence of the blank was subtracted. F-F0 was plotted versus the concentration of the homologue and the data were fitted by non-linear regression to a one-site saturation model employing SigmaPlot® software to obtain binding isotherms. y=Bmax*x/(Kd+x) Bmax: fluorescence intensity for a saturated binding domain of HC gp-39 Kd: dissociation constant.

T1 sequence (P07254 24-563): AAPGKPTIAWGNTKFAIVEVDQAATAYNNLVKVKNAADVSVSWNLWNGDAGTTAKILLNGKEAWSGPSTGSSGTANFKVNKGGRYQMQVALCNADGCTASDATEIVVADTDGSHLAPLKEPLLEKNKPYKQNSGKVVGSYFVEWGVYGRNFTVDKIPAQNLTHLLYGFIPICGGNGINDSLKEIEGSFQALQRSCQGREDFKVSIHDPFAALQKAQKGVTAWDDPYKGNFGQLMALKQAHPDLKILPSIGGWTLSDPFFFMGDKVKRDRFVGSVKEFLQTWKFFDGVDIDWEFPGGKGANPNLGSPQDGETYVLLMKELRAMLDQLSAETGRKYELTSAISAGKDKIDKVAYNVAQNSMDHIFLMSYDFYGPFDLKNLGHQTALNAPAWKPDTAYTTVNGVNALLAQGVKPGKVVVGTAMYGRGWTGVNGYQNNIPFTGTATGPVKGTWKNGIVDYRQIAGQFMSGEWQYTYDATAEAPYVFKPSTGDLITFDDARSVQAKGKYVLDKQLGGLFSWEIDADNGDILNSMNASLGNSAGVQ

SMILES: CC(=O)N[C@H]1[C@H](O[C@H]2[C@H](O)[C@@H](NC(C)=O)[C@H](O[C@H]3[C@H](O)[C@@H](NC(C)=O)C(O)O[C@@H]3CO)O[C@@H]2CO)O[C@H](CO)[C@@H](O[C@@H]2O[C@H](CO)[C@@H](O[C@@H]3O[C@H](CO)[C@@H](O[C@@H]4O[C@H](CO)[C@@H](O)[C@H](O)[C@H]4NC(C)=O)[C@H](O)[C@H]3NC(C)=O)[C@H](O)[C@H]2NC(C)=O)[C@@H]1O (stereo partly drawn) [Homologue A6]
cleavage by Chitinase A (Chitinase A [1]): cleaved

SMILES: CC(=O)N[C@H]1[C@H](O[C@H]2[C@H](O)[C@@H](NC(C)=O)C(O)O[C@@H]2CO)O[C@H](CO)[C@@H](O)[C@@H]1O (stereo partly drawn) [Homologue A2]
Mass calc (HPIEC homologue) ([2]; GPC, HPIEC and MALDI-TOF): 270 μg
Conc (HPIEC homologue) ([2]; blood sample after 3 weeks of ChOS consumption, GPC, HPIEC and MALDI-TOF): 39 μg/mL
oligomers observed in blood sample ([2]; post 1 week of ChOS consumption, 1.8 g daily): traces

SMILES: CC(=O)N[C@H]1[C@H](O[C@H]2[C@H](O)[C@@H](NC(C)=O)C(O)O[C@@H]2CO)O[C@H](CO)[C@@H](O[C@@H]2O[C@H](CO)[C@@H](O)[C@H](O)[C@H]2NC(C)=O)[C@@H]1O (stereo partly drawn) [Homologue A3]
Mass calc (HPIEC homologue) ([2]; GPC, HPIEC and MALDI-TOF): 30 μg
concentration at 3 weeks ([2]; human, serum, oral, 1.8 g daily (ChOS mixture), blood sample after 3 weeks of ChOS consumption, GPC, HPIEC and MALDI-TOF, read-out: Conc (HPIEC homologue)): 4000 ng/mL
IC50 (Chitinase A [3]): 219 µM

Continued, values first:

blocking of chitinase activity (Chitinase A [3]): poor blockers
SMILES: NC1C(OC2C(CO)OC(OC3C(CO)OC(OC4C(CO)OC(OC5C(CO)OC(OC6C(CO)OC(OC7C(CO)OC(OC8C(CO)OC(OC9C(CO)OC(O)C(N)C9O)C(N)C8O)C(N)C7O)C(N)C6O)C(N)C5O)C(N)C4O)C(N)C3O)C(N)C2O)OC(CO)C(O)C1O (stereo not drawn) [Homologue D9]

blocking of chitinase activity (Chitinase A [3]): poor blockers
SMILES: NC1C(OC2C(CO)OC(OC3C(CO)OC(OC4C(CO)OC(OC5C(CO)OC(OC6C(CO)OC(OC7C(CO)OC(OC8C(CO)OC(OC9C(CO)OC(OC%10C(CO)OC(OC%11C(CO)OC(OC%12C(CO)OC(O)C(N)C%12O)C(N)C%11O)C(N)C%10O)C(N)C9O)C(N)C8O)C(N)C7O)C(N)C6O)C(N)C5O)C(N)C4O)C(N)C3O)C(N)C2O)OC(CO)C(O)C1O (stereo not drawn) [Homologue D12]

dissociation constant [4]: μmolar range
blocking of chitinase activity (Chitinase A [3]): poor blockers
IC50 (Chitinase A [3]; pH 7.4, 37° C., 10 min, 4-MU-A3 substrate, NB = no blocking found, read-out: IC50): 1980 µM
SMILES: N[C@H]1[C@H](O[C@H]2[C@H](O)[C@@H](N)[C@H](O[C@H]3[C@H](O)[C@@H](N)[C@H](O[C@H]4[C@H](O)[C@@H](N)[C@H](O[C@H]5[C@H](O)[C@@H](N)[C@H](O[C@H]6[C@H](O)[C@@H](N)C(O)O[C@@H]6CO)O[C@@H]5CO)O[C@@H]4CO)O[C@@H]3CO)O[C@@H]2CO)O[C@H](CO)[C@@H](O)[C@@H]1O (stereo partly drawn) [Homologue D6]
